Molecular target: T1, recombinant autotaxin (Homo sapiens, UniProt Q13822)
T1 construct: made in house; host or cells: Hi5 insect cells (baculovirus)
Experiment: Autotaxin test (enzyme test), Amplex Red fluorescence with LPC substrate
Format: biochemical
Conditions: autotaxin inhibition (enzyme test); for remaining activity at 10 µM: 10 μM compound, read-out: % Control at 10 μM
How it was run: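 Purified recombinant autotaxin (baculovirus Hi5-expressed) pre-incubated with compound 30 min at 22° C, then LPC (final 75 μM) added and reacted 90 min at 37° C in Tris pH 8 buffer with CaCl2. Choline released was coupled via alkaline phosphatase, choline oxidase and peroxidase to Amplex Red; resorufin fluorescence read in kinetic mode (ex 485/em 612 nm).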

Structure (SMILES) | remaining activity at 10 µM [%] | IC50 [nM]
CC(C)(C)CC(=O)N1CCN2Cc3cc(-c4ccccc4F)ccc3NCC2C1 (stereo not drawn) [Compound 25, 1-[7-(2-fluorophenyl)-3,4,5,10,11,11a-hexahydro-1H-2,4-a,10-triazadibenzo[a,d]cyclohepten-2-yl]-3,3-dimethylbutan-1-one] | 53 | > 1000
CN(C)CCN1C(=O)[C@@H]2CN(C(=O)CC(C)(C)C)CCN2C(=O)c2cc(-c3ccc(Cl)cc3F)ccc21 [Compound A163] | 10 | > 1000
CN1CCC(N2CCC[C@H]2C(=O)N2CCN3C(=O)c4cc(-c5ccc(Cl)cc5F)ccc4NC(=O)[C@H]3C2)CC1 [Compound A118, (R)-7-(4-Chloro-2-fluorophenyl)-2-[(S)-1-(1-methylpiperidin-4-yl)pyrrolidine-2-carbonyl]-1,3,4,11a-tetrahydro-2H,10H-2,4a,10-triaza-dibenzo[a,d]cycloheptene-5,11-dione] | 8 | 100 to 1000

The remaining lines, values ahead:

remaining activity at 10 µM [%] | IC50 [nM] | Structure (SMILES)
1 | 100 to 1000 | CC(C)(C)CC(=O)N1CCN2C(=O)c3cc(-c4ccc(Cl)cc4F)ccc3NC(=O)C2C1 (stereo not drawn) [Compound 10, 7-(4-chloro-2-fluorophenyl)-2-(3,3-dimethylbutyryl)-1,3,4,11a-tetrahydro-2H,10H-2,4a,10-triazadibenzo[a,d]cycloheptene-5,11-dione]
-21 | 100 to 1000 | CO[C@H](C(=O)N1CCN2C(=O)c3cc(-c4ccc(Cl)cc4)ccc3NC(=O)C2C1)C(C)(C)C (stereo partly drawn) [Compound A138, 7-(4-Chlorophenyl)-2-((S)-2-methoxy-3,3-dimethyl-butyryl)-1,3,4,11a-tetrahydro-2H,10H-2,4a,10-triazadibenzo[a,d]cycloheptene-5,11-dione]
4 | > 1000 | CC(C)(C)CC(=O)N1CCN2C(=O)c3cc(-c4cc(F)ccc4F)ccc3NC(=O)C2C1 (stereo not drawn) [Compound A89, 7-(2,5-Difluorophenyl)-2-(3,3-dimethylbutyryl)-1,3,4,11a-tetrahydro-2H,10H-2,4a,10-triaza-dibenzo[a,d]cycloheptene-5,11-dione]
